Common to all, as to test: Test C postemergence herbicide test
Assay [1] relates to wild oat. Format: in vivo, Avenafatua. An outline of the steps:
(§1)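 Postemergence sprays were applied to plants 2 to 18 cm tall (1- to 4-leaf stage); in the flooded paddy test, barnyardgrass was grown to the 2-leaf stage. After 12 to 14 days in a greenhouse, injury was visually rated against untreated controls on a 0–100 scale (100 = complete control).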

Assay [2] has as its system green foxtail. Format: in vivo, Setaria viridis. An outline of the steps:
as §1

Assay [3] deals with Italian ryegrass. Format: in vivo, Lolium multiflorum. An outline of the steps:
as §1

In assay [4] the test system is windgrass. The class given is in vivo, Apera spica-venti. An outline of the steps: as §1
In assay [5] the test system is downy bromegrass. The class given is in vivo, Bromus tectorum. An outline of the steps: as §1
Setting [6] is: Postemergence, 250 g ai/ha, scale 0 to 100, 0 no effect, 100 complete control.
[7] abbreviates: postemergence, 125 g ai/ha, scale 0 to 100.
The mark [8] stands for this setting: postemergence, 62 g ai/ha, scale 0 to 100.
[9] abbreviates: postemergence, 31 g ai/ha, scale 0 to 100.
Where [10] appears, read: Postemergence, 500 g ai/ha, scale 0 to 100, 0 no effect, 100 complete control.
[11] abbreviates: Postemergence, 500 g ai/ha, scale 0 to 100.

Each structure is given as a SMILES string.

Turning to `CCOC(=O)c1cccc(NC(=O)c2cc(C3(C)CC3)nn2CC)c1` [Compound 295], the “Plant response rating, Oat, Wild” value in assay [1] (setting [6]), in assay [1] (setting [7]) and in assay [1] (setting [8]) was 50 in each case. For the same molecule, the “Plant response rating, Foxtail, Green” value in assay [2] (setting [6]) amounted to 60; in assay [2] (setting [7]), 50; in assay [2] (setting [8]), 45. Besides, the entries for the “Plant response rating, Ryegrass, Italian” value in assay [3] (setting [6]), in assay [3] (setting [7]) and in assay [3] (setting [8]) were 65, 40 and 40, respectively. Further, the “Plant response rating, Windgrass” value worked out at 65 in assay [4] (setting [6]), 60 in assay [4] (setting [7]) and 50 in assay [4] (setting [8]). Also, the “Plant response rating, Bromegrass, Downy” value in assay [5] (setting [6]), in assay [5] (setting [7]), in assay [5] (setting [9]) and in assay [5] (setting [8]) was 45 each time.

`CCn1nc(C(C)(C)C)cc1C(=O)Nc1cccc(OS(=O)(=O)CC)c1` [Compound 408]: the “Plant response rating, Oat, Wild” value was 70 in assay [1] (setting [10]), 55 in assay [1] (setting [7]) and 45 in assay [1] (setting [8]). Moreover, the “Plant response rating, Foxtail, Green” value came to 70 in assay [2] (setting [6]), 80 in assay [2] (setting [10]), 60 in assay [2] (setting [7]) and 40 in assay [2] (setting [8]). The “Plant response rating, Ryegrass, Italian” value in assay [3] (setting [10]) is recorded as 70; in assay [3] (setting [7]) it was 45; in assay [3] (setting [8]) it was 40. Moreover, the results for the “Plant response rating, Windgrass” value in assay [4] (setting [10]), in assay [4] (setting [7]) and in assay [4] (setting [8]) were 65, 45 and 40, respectively. Further, the “Plant response rating, Bromegrass, Downy” value turned out to be 55 in assay [5] (setting [6]), 55 in assay [5] (setting [10]), 45 in assay [5] (setting [7]) and 40 in assay [5] (setting [8]).

Regarding `CCCCOc1cccc(NC(=O)c2cc(C(C)(C)C)nn2CC)c1` [Compound 137], in assay [1] (setting [11]), the “Oat, Wild plant response rating” value was found to be 50. The “Plant response rating, Oat, Wild” value was 40 in assay [1] (setting [6]), 40 in assay [1] (setting [7]) and 20 in assay [1] (setting [8]). The “Foxtail, Green plant response rating” value in assay [2] (setting [11]) is reported as 50. The “Plant response rating, Foxtail, Green” value in assay [2] (setting [6]) is given as 50; in assay [2] (setting [7]) it was 50; in assay [2] (setting [8]), 30. The “Ryegrass, Italian plant response rating” value in assay [3] (setting [11]) is 60. Also, the “Plant response rating, Ryegrass, Italian” value is on record as 40 in assay [3] (setting [6]), 40 in assay [3] (setting [7]) and 20 in assay [3] (setting [8]). Moreover, the “Windgrass plant response rating” value in assay [4] (setting [11]) is 60. For the same molecule, the “Plant response rating, Windgrass” value in assay [4] (setting [6]) is 50; in assay [4] (setting [7]), 50; in assay [4] (setting [8]), 30. Moreover, in assay [5] (setting [11]), the “Bromegrass, Downy plant response rating” value is listed as 40. Moreover, the “Plant response rating, Bromegrass, Downy” value in assay [5] (setting [6]) is on record as 20; in assay [5] (setting [7]), 20; in assay [5] (setting [8]), 10.

For `CCn1nc(C(C)(C)C)cc1C(=O)Nc1cccc(C(=O)NCC2CC2)c1` [Compound 62], the “Plant response rating, Oat, Wild” value in assay [1] (setting [6]) was determined as 50; in assay [1] (setting [7]) it was 40; in assay [1] (setting [8]), 30. In addition, the “Plant response rating, Foxtail, Green” value in assay [2] (setting [6]) was found to be 50; in assay [2] (setting [7]), 50; in assay [2] (setting [8]), 40. Also, the “Plant response rating, Ryegrass, Italian” value in assay [3] (setting [6]) is 40; in assay [3] (setting [7]) it was 20; in assay [3] (setting [8]) it was 20. In addition, the entries for the “Plant response rating, Windgrass” value in assay [4] (setting [6]), in assay [4] (setting [7]) and in assay [4] (setting [8]) were 50, 40 and 30, respectively. Besides, the “Plant response rating, Bromegrass, Downy” value in assay [5] (setting [6]) worked out at 30; in assay [5] (setting [7]), 20; in assay [5] (setting [9]), 10; in assay [5] (setting [8]) it was 20.

For the molecule `CCn1nc(C(C)(C)C)cc1C(=O)Nc1cc(OC(F)(F)F)ccc1F` [Compound 338], the “Plant response rating, Oat, Wild” value in assay [1] (setting [6]) is on record as 50; in assay [1] (setting [10]), 60; in assay [1] (setting [7]), 45; in assay [1] (setting [8]), 40. Further, the “Plant response rating, Foxtail, Green” value was determined as 40 in assay [2] (setting [6]), 50 in assay [2] (setting [10]), 40 in assay [2] (setting [7]) and 30 in assay [2] (setting [8]). Moreover, the “Plant response rating, Ryegrass, Italian” value in assay [3] (setting [6]) amounted to 50; in assay [3] (setting [10]), 60; in assay [3] (setting [7]), 30; in assay [3] (setting [8]), 25. In addition, the “Plant response rating, Windgrass” value is listed as 15 in assay [4] (setting [7]) and 10 in assay [4] (setting [8]). For the same molecule, the “Plant response rating, Bromegrass, Downy” value in assay [5] (setting [6]) stood at 40; in assay [5] (setting [10]), 45; in assay [5] (setting [7]), 35; in assay [5] (setting [8]) it was 30.

As to `CCn1nc(C2(C)CC2)cc1C(=O)Nc1cc(C(=O)N2CC=CC2)ccc1F` [Compound 301], in assay [1] (setting [11]), the “Oat, Wild plant response rating” value was 60. Also, the “Plant response rating, Oat, Wild” value in assay [1] (setting [6]) is 75; in assay [1] (setting [7]) it was 65; in assay [1] (setting [8]), 45. Further, the “Foxtail, Green plant response rating” value in assay [2] (setting [11]) came out at 65. In addition, the results for the “Plant response rating, Foxtail, Green” value in assay [2] (setting [6]), in assay [2] (setting [7]) and in assay [2] (setting [8]) were 60, 45 and 40, respectively. In addition, the “Ryegrass, Italian plant response rating” value in assay [3] (setting [11]) is 65. The results for the “Plant response rating, Ryegrass, Italian” value in assay [3] (setting [6]), in assay [3] (setting [7]) and in assay [3] (setting [8]) were 45, 45 and 35, respectively. In assay [4] (setting [11]), the “Windgrass plant response rating” value worked out at 40. Further, the “Plant response rating, Windgrass” value in assay [4] (setting [6]), in assay [4] (setting [7]) and in assay [4] (setting [8]) was 35 throughout. Moreover, the “Bromegrass, Downy plant response rating” value in assay [5] (setting [11]) is recorded as 40. Moreover, the “Plant response rating, Bromegrass, Downy” value in assay [5] (setting [6]), in assay [5] (setting [7]) and in assay [5] (setting [8]) was 40 throughout.

The values above are taken from patent US20060069132A1, “Azolecarboxamide herbicides” (priority 2004, published 2006).
